From patent US10774115B2, “Modified Fab region-binding peptide” (Kaneka Corporation, priority 2015, dated 2020)

What was measured:
aTNF-Fab [1] = assay: Affinity of modified SpG-β1# for aTNF-Fab by surface plasmon resonance (Biacore 3000); conditions: aTNF-Fab immobilized on CM5 sensor tip, 25° C., pH 7.4, 1:1 binding model
Protocol: A humanized monoclonal IgG product as a raw material was fragmented into a Fab fragment and a Fc fragment using papain, and only the Fab fragment was separated and purified. Specifically, anti-human TNFα monoclonal IgG (generic name: “Infliximab”, product name: “Remicade” manufactured by Mitsubishi Tanabe Pharma Corporation) was dissolved in a buffer for papain treatment (0.1 M AcOH—AcONa, 2 mM EDTA, 1 mM cysteine, pH 5.5), and agarose on which papain was immobilized (“Papain Agarose from papaya latex” manufactured by SIGMA) was added thereto. The mixture was incubated with stirring by a rotator at 37° C. for about 8 hours. The IgG-Fab was purified by recovering as a flow-through fraction in an affinity chromatography using MabSelect SuRe column (GE Healthcare Bioscience) from the reaction mixture which contained both of a Fab fragment and a Fc fragment and which was separated from the agarose on which papain was immobilized. The obtained IgG-Fab solution was subjected to purification by gel filtration chromatography using Superdex 75 10/300 GL column to obtain the solution of IgG-Fab (aTNF-Fab). In the chromatography, the standard buffer was used for equilibration and separation. Similarly to the above-described Example 1, AKTAprime plus system was used in the chromatography for peptide purification.
The affinity of each various modified SpG-β1# obtained in the above Example 1(2) for aTNF-Fab was evaluated using a biosensor Biacore 3000 (GE Healthcare Bioscience) utilizing surface plasmon resonance. In the present Example, the aTNF-Fab obtained in the above Example 2(1) was immobilized on a sensor tip, and each of the peptide was flown on the tip to detect the interaction between the two. The aTNF-Fab was immobilized on a sensor tip CM5 by amine coupling method using N-hydroxysuccinimide (NHS) and N-ethyl-N′-(3-dimethylaminopropyl)carbodiimide hydrochloride (EDC), and ethanolamine was used for blocking. All of the sensor tip and reagents for immobilization were manufactured by GE Healthcare Bioscience. The aTNF-Fab solution was diluted about 10 times using a buffer for immobilization (10 mM AcOH—AcONa, pH 4.5), and the aTNF-Fab was immobilized on the sensor tip in accordance with the protocol attached to the Biacore 3000. In addition, a reference cell as negative control was also prepared by activating another flow cell on the tip with EDC/NHS, immobilizing nothing and blocking with ethanolamine. Peptide solutions of each various modified SpG-β1# having concentrations of 0.01, 0.1, 1 or 10 μM were prepared using a running buffer (20 mM NaH2PO4—Na2HPO4, 150 mM NaCl, 0.005% P-20, pH 7.4). The peptide solution was added to the sensor tip in a flow rate of 40 μL/min for 1 minute. Bonding response curves at the time of addition (association phase, for 1 minute) and after the addition (dissociation phase, for 1 minute) were sequentially obtained at a measurement temperature of 25° C. After each measurement, the cells were washed using about 20 mM NaOH. The bonding response curve obtained by subtracting the bonding response curve of the reference cell was subjected to fitting analysis by a binding model of 1:1 using a software BIA evaluation attached to the system, and affinity constant (KA=kon/koff) to aTNF-Fab was calculated. The result is shown in Table 2 with each binding parameter of GB1#-Cont.1d, which parameter was measured in Comparative Example 2.
An affinity of GB1#-Cont.1d prepared in Comparative example 1 for aTNF-Fab prepared in Example 2(1) was evaluated similarly to the procedure of Example 2(2).

aTNF-Fab [2] = assay: Acid dissociation pH by pH linear gradient chromatography on aTNF-Fab-immobilized column; format: binding; conditions: for elution position in pH gradient compared with peptide without mutation: Table 3 and FIG. 2; for Dissociation pH (pH at elution peak top): pH linear gradient from pH 5.5 to pH 2.5
Protocol: An affinity separation matrix on which aTNF-Fab obtained in the above Example 2 was immobilized was prepared by using a commercially available coupling column for immobilizing a ligand. The column has an amino group as a functional group for coupling.
As a water-insoluble carrier, 1 mL of a commercially available prepacked column (“Hitrap NHS activated HP” manufactured by GE Healthcare Bioscience) was used. The column contains a crosslinked agarose as a base material and an amino group is introduced as an active functional group for immobilizing a protein ligand, and a ligand was immobilized in accordance with the product manual. Specifically, 2 mL of ice-cooled 1 mM HCl was flown at a rate of 1 mL/min repeatedly three times to remove isopropanol in the column.
Then, 1 mL of a 1 mg/mL aTNF-Fab solution in a coupling buffer (0.2 MNaHCO3, 0.5 MNaCl, pH 8.3) was immediately flown at the same rate. The top and bottom of the column were stoppled, and the column was stood still at 25° C. for 30 minutes to immobilize the obtained ligand on the column.
Then, the column was opened, and 3 mL of the coupling buffer was flown at the same rate to recover the unreacted aTNF-Fab. Next, 2 mL of a blocking buffer (0.5 M ethanolamine, 0.5 M NaCl, pH 8.3) was flown repeatedly three times and 2 mL of a washing buffer (0.1 M acetic acid, 0.5 M NaCl, pH 4.0) was flown three times. Each of the above-described procedure to flow the blocking buffer and washing buffer were performed three times one after the other. Finally, 2 mL of a standard buffer (20 mM NaH2PO4—Na2HPO4, 150 mM NaCl, pH 7.4) was flown to complete the preparation of an affinity separation matrix.
By affinity purification chromatography using aTNF-Fab-immobilized column prepared in Example 3(1), an acid dissociation pH at which each modified SpG-β1# prepared in Example 1 (2) was eluted and which corresponded to the peak top of an elution curve of the modified SpG-β1# was measured. Specifically, AKTAprime plus system was used as a chromatography system. The column was equilibrated using ion exchange buffer A (50 mM citric acid-citrate Na, pH 5.5). Into the column, 0.1 mL of a protein solution containing each modified SpG-β1# in the concentration of about 0.1 mg/mL was added, and the protein was eluted with the pH linear gradient from pH 5.5 to pH 2.5. More specifically, the ion exchange buffer A and ion exchange buffer B (50 mM AcOH—AcONa, 1 M NaCl, pH 2.5) were used. […] The pH value which was specified in the experiment as the value corresponding to each elution peak top is shown in Table 3 in addition to the result of Comparative example 3.
An acid dissociation pH of GB1#-Cont.1d prepared in Comparative example 1 was measured using aTNF-Fab-immobilized carrier prepared in Example 3(1) similarly to the procedure of Example 3(2).

Substance | KA (affinity constant, KA=kon/koff) (aTNF-Fab [1]) | koff (aTNF-Fab [1]) | kon (aTNF-Fab [1]) | elution position in pH gradient compared with peptide without mutation (aTNF-Fab [2]) | Dissociation pH (pH at elution peak top) (aTNF-Fab [2])
GB1#-T17V.1d: modified SpG-β1# single domain with mutation T17V; amino acid SEQ ID NO: 18 (TTYKLILNGKTLTGYTVAIAADAATAEIVLKQFANDNGIDGEWTYDDATKTFTVTE; GB1#-mutant) | 0.57 ×10^6 [M^−1] | 3.35 ×10^−2 [s^−1] | 1.91 ×10^4 [M^−1s] | eluted earlier than GB1#-Cont.1d | 3.00
GB1#-D36V.1d: modified SpG-β1# single domain with mutation D36V; amino acid SEQ ID NO: 19 (TTYKLILNGKTLTGYTTAIAADAATAEIVLKQFANVNGIDGEWTYDDATKTFTVTE; GB1#-mutant) | 0.51 ×10^6 [M^−1] | 6.40 ×10^−2 [s^−1] | 3.28 ×10^4 [M^−1s] | eluted earlier than GB1#-Cont.1d | 3.40
GB1#-Cont.1d: modified SpG-β1 of SEQ ID NO: 1 with improved binding capability to Fab; peptide before substitution mutation, Comparative example (TTYKLILNGKTLTGYTTAIAADAATAEIVLKQFANDNGIDGEWTYDDATKTFTVTE; Immunoglobulin-binding peptide) [reference compound] | 2.45 ×10^6 [M^−1] | 1.70 ×10^−2 [s^−1] | 4.17 ×10^4 [M^−1s] | – | 2.60
GB1#-T17A.1d: modified SpG-β1# single domain, SEQ ID NO: 1 with Thr at 17th position substituted by Ala; amino acid SEQ ID NO: 17 (TTYKLILNGKTLTGYTAAIAADAATAEIVLKQFANDNGIDGEWTYDDATKTFTVTE; GB1#-mutant) | 0.88 ×10^6 [M^−1] | 2.85 ×10^−2 [s^−1] | 2.50 ×10^4 [M^−1s] | eluted earlier than GB1#-Cont.1d | 2.85
